One may read the IC50 as the concentration that inhibits the measured activity by half.

Here are results for 13 compounds from patent US10336702B2, “Pharmaceutically active compounds” (BERGENBIO ASA, priority 2015, dated 2019).

The target in one test is T1, Akt2 (Homo sapiens, UniProt P31751).
T1 construct: unspecified tag, removed (detagged) (cleaved yes); purchased SignalChem and Proteros (Akt2); Merck Millipore (PDK1) 14-452 (PDK1); none given for Akt2
Put plainly: Akt activation assay (PDK1-mediated activation, LANCE Ultra crosstide TR-FRET), Akt2. The following applies: read-out: Biological Assay 1 IC50 (nM) Akt2. In kind it is biochemical. Summed up: (§1)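 Human Akt1, Akt2 or Akt3 (SignalChem: 5, 15, 3 nM; Proteros: 5 nM each) was preincubated with compound, then activated by 5 nM PDK1 on PtdIns(3,4,5)P3/DOPS/DOPC vesicles with 100 µM ATP and 100 nM ULight-crosstide (HEPES pH 7.5, 1% DMSO) for 30 min. Product was detected by Eu-anti-phospho-crosstide TR-FRET (665/615 nm), with IC50 from a 4-parameter fit.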
(In general: In TR-FRET formats the signal depends on donor and acceptor labels being close together.)

A further test deals with T2, p-Akt1 in LNCaP cells (Homo sapiens, UniProt P31749).
T2 construct: SureFire assays to detect cellular p-Akt1, p-Akt2 and p-Akt3 levels in WM115 cells (Akt2/3) and LNCaP cells (Akt1); endogenous in cells; host or cells: LNCaP (ECACC 89110211)
Put plainly: Phospho-Akt cellular SureFire assay, p-Akt1 in LNCaP cells. Particulars: read-out: Biological Assay 2 IC50 (nM) Akt1 LNCaP. It is filed as cell-based. In a few lines:
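LNCaP cells, 5×10^4/well, seeded overnight, switched to 0.1% FBS medium without insulin stimulation, then compound for 15 min at 37 °C (0.3% DMSO). Lysate p-Akt1 (pThr308) by AlphaScreen SureFire, two 2 h incubations at room temperature; IC50 by 4-parameter fit.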

The next test concerns the target T3, p-Akt3 in WM115 cells (Homo sapiens, UniProt Q9Y243).
T3 construct: SureFire assays to detect cellular p-Akt1, p-Akt2 and p-Akt3 levels in WM115 cells (Akt2/3) and LNCaP cells (Akt1); endogenous in cells; host or cells: WM115 (ECACC 91061232), insulin-stimulated
As to the kind of experiment: Phospho-Akt cellular SureFire assay, p-Akt3 in WM115 cells. It is filed as cell-based. The following applies: insulin stimulated, read-out: Biological Assay 2 IC50 (nM) Akt3 WM115. Summed up: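 WM115 cells were serum-reduced to 0.1% FBS, stimulated with 100 nM insulin for 10 min, then exposed to compound (0.3% DMSO) for 15 min at 37 °C. Lysates were assayed for Thr308-phosphorylated Akt3 by AlphaScreen SureFire using an isoform-specific total Akt3 capture antibody. IC50 was derived from a 4-parameter fit.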

A further test has as its target T4, Akt3 (Homo sapiens, UniProt Q9Y243).
T4 construct: unspecified tag, removed (detagged) (cleaved yes); purchased SignalChem and Proteros (Akt3); Merck Millipore (PDK1) 14-452 (PDK1); none given for Akt3
As to the kind of experiment: Akt activation assay (PDK1-mediated activation, LANCE Ultra crosstide TR-FRET), Akt3. It is filed as biochemical. The following applies: read-out: Biological Assay 1 IC50 (nM) Akt3. In a few lines:
as §1

A further test has as its target T5, Akt1 (Homo sapiens, UniProt P31749).
T5 construct: unspecified tag, removed (detagged) (cleaved yes); purchased SignalChem and Proteros (Akt1); Merck Millipore (PDK1) 14-452 (PDK1); none given for Akt1
Put plainly: Akt activation assay (PDK1-mediated activation, LANCE Ultra crosstide TR-FRET), Akt1. Particulars: read-out: Biological Assay 1 IC50 (nM) Akt1. In kind it is biochemical. In a few lines: as §1

The next test has as its target T6, p-Akt2 in WM115 cells (Homo sapiens, UniProt P31751).
T6 construct: SureFire assays to detect cellular p-Akt1, p-Akt2 and p-Akt3 levels in WM115 cells (Akt2/3) and LNCaP cells (Akt1); endogenous in cells; host or cells: WM115 (ECACC 91061232), insulin-stimulated
As to the kind of experiment: Phospho-Akt cellular SureFire assay, p-Akt2 in WM115 cells. It is filed as cell-based. The following applies: insulin stimulated, read-out: Biological Assay 2 IC50 (nM) Akt2 WM115. Summed up: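 WM115 cells in 0.1% FBS medium stimulated 10 min with 100 nM insulin, then exposed to compound for 15 min at 37° C (0.3% DMSO final). Lysates assayed by AlphaScreen with anti-(pThr308)Akt and isoform-specific total Akt2 antibodies; IC50 from 4-parameter fit.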

The structures appear in SMILES notation.

T5 sequence (P31749 whole entry): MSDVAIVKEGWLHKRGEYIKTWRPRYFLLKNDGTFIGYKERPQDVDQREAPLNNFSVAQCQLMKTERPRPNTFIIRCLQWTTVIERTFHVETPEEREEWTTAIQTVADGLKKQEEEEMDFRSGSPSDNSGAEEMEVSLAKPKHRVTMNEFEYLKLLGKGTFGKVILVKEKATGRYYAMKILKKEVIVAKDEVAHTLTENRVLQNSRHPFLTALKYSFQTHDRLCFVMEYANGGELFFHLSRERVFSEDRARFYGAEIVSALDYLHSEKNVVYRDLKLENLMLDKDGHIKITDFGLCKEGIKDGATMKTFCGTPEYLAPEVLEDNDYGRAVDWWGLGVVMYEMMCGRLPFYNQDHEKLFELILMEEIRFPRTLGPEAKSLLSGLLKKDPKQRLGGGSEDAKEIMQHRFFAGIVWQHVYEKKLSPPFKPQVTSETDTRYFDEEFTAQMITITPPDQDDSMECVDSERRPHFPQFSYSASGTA
T2 sequence (P31749 whole entry): as above
T3 sequence (Q9Y243 whole entry): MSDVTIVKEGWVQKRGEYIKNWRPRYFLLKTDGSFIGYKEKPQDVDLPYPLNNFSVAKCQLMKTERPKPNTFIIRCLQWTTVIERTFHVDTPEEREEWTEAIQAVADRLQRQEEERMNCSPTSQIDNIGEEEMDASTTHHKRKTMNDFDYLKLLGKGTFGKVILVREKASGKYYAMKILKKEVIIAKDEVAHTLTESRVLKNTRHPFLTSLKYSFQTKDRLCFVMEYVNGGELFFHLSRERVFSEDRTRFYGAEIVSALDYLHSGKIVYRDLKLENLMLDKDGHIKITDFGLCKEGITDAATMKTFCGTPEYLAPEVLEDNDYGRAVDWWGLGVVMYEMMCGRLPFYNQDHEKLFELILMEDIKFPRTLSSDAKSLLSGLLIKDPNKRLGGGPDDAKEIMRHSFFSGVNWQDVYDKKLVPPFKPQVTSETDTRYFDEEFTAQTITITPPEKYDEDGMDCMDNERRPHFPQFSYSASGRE
T4 sequence (Q9Y243 whole entry): as above
T6 sequence (P31751 whole entry): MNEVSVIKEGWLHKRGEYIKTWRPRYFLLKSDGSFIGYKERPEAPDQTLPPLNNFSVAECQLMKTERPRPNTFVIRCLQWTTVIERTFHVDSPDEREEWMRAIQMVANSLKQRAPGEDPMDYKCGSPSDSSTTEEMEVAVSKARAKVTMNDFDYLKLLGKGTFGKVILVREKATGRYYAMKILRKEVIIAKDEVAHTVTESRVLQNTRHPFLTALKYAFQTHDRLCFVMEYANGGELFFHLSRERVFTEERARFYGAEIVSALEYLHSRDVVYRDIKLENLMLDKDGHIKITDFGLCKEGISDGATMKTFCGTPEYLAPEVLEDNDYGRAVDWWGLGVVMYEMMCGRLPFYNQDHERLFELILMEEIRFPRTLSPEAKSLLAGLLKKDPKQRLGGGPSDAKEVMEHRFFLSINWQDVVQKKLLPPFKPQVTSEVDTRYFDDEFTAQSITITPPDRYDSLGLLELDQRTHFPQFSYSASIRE
T1 sequence (P31751 whole entry): as above

On to `CC(C)N(C(=O)C1CC1)[C@H]1CC[C@H](CC(=O)Nc2cc(-c3ccccc3)c(-c3ccc([C@]4(N)C[C@](C)(O)C4)cc3)nn2)CC1` [Example 105, N-(trans-4-(2-((6-(4-(trans-1-amino-3-hydroxy-3-methylcyclobutyl)phenyl)-5-phenylpyridazin-3-yl)amino)-2-oxoethyl)cyclohexyl)-N-isopropylcyclopropanecarboxamide], for which the IC50 came to 210 nM on Akt2; 5300 nM on p-Akt1 in LNCaP cells; 26 nM at p-Akt3 in WM115 cells; 8 nM on Akt3; 4600 nM on Akt1; 1400 nM on p-Akt2 in WM115 cells.
Take `N[C@]1(c2ccc(-c3nnc(NC(=O)C[C@H]4CC[C@H](N5CCCC5=O)CC4)cc3-c3ccccc3)cc2)C[C@@H](F)C1` [Example 74, N-(6-(4-(trans-1-amino-3-fluorocyclobutyl)phenyl)-5-phenylpyridazin-3-yl)-2-(trans-4-(2-oxopyrrolidin-1-yl)cyclohexyl)acetamide]: the IC50 at Akt2 was 190 nM; at p-Akt1 in LNCaP cells it was greater than 30000 nM; on p-Akt3 in WM115 cells, 40 nM; on Akt3, 4 nM; at Akt1 it was greater than 30000 nM; on p-Akt2 in WM115 cells it was 1700 nM.
Take `CCC(=O)N(CC)[C@H]1CC[C@H](CC(=O)Nc2cc(-c3ccccc3)c(-c3ccc([C@]4(N)C[C@](C)(O)C4)cc3)nn2)CC1` [Example 113, N-(trans-4-(2-((6-(4-(trans-1-amino-3-hydroxy-3-methylcyclobutyl)phen)-5-phenylpyridazin-3-yl)amino)-2-oxoethyl)cyclohexyl)-N-ethylpropionamide]: the IC50 on Akt2 is 130 nM; on p-Akt1 in LNCaP cells, 4100 nM; at p-Akt3 in WM115 cells, 7 nM; at Akt3, 8 nM; at Akt1, greater than 14000 nM; on p-Akt2 in WM115 cells, 510 nM.
With `NC1(c2ccc(-c3nnc(NC(=O)C[C@H]4CC[C@H](N5CCOC5=O)CC4)cc3-c3ccccc3)cc2)CC(F)(F)C1` [Example 61, N-(6-(4-(1-amino-3,3-difluorocyclobutyl)phenyl)-5-phenylpyridazin-3-yl)-2-(trans-4-(2-oxooxazolidin-3-yl)cyclohexyl)acetamide], the IC50 is 200 nM on Akt2; greater than 30000 nM at p-Akt1 in LNCaP cells; 66 nM at p-Akt3 in WM115 cells; 17 nM at Akt3; greater than 22800 nM at Akt1; greater than 10500 nM at p-Akt2 in WM115 cells.
With `CC(=O)N(C)[C@H]1CC[C@H](CC(=O)Nc2cc(-c3ccsc3)c(-c3ccc(C4(N)CCC4)cc3)cn2)CC1` [Example A64, N-(5-(4-(1-aminocyclobutyl)phenyl)-4-(thiophen-3-yl)pyridin-2-yl)-2-(trans-4-(N-methylacetamido)cyclohexyl)acetamide], the half-inhibitory concentration (IC50) was 1400 nM on Akt2; greater than 30000 nM at p-Akt1 in LNCaP cells; 85 nM on p-Akt3 in WM115 cells; 30 nM on Akt3; greater than 30000 nM on Akt1; 1400 nM on p-Akt2 in WM115 cells.
In the case of `NC1(c2ccc(-c3cnc(NC(=O)C[C@H]4CC[C@H](N5CCCC5=O)CC4)cc3-c3ccccc3)cc2)CC1` [Example A83, N-(5-(4-(1-aminocyclopropyl)phenyl)-4-phenylpyridin-2-yl)-2-(trans-4-(2-oxopyrrolidin-1-yl)cyclohexyl)acetamide], the half-inhibitory concentration (IC50) at Akt2 was 500 nM; on p-Akt1 in LNCaP cells, greater than 20000 nM; on p-Akt3 in WM115 cells, 220 nM; at Akt3, 33 nM; on Akt1 it was greater than 30000 nM; on p-Akt2 in WM115 cells, 3400 nM.
As for `CC(C)C(=O)N(C)[C@H]1CC[C@H](CC(=O)Nc2cnc(-c3ccc([C@]4(N)C[C@](C)(O)C4)cc3)c(-c3ccccc3)c2)CC1` [Example 99, N-(4-(2-((6-(4-(trans-1-amino-3-hydroxy-3-methylcyclobutyl)phenyl)-5-phenylpyridin-3-yl)amino)-2-oxoethyl)cyclohexyl)-N-methylisobutyramide], the IC50 is 44 nM on Akt2; 670 nM on p-Akt1 in LNCaP cells; 12 nM on p-Akt3 in WM115 cells; 6 nM at Akt3; 2400 nM at Akt1; 390 nM on p-Akt2 in WM115 cells.
Regarding `CCC(=O)N(C)[C@H]1CC[C@H](CC(=O)Nc2cc(-c3ccsc3)c(-c3ccc([C@]4(N)C[C@](C)(O)C4)cc3)nn2)CC1` [Example 91, N-(trans-4-(2-((6-(4-(trans-1-amino-3-hydroxy-3-methylcyclobutyl)phenyl)-5-(thiophen-3-yl)pyridazin-3-yl)amino)-2-oxoethyl)cyclohexyl)-N-methylpropionamide], the IC50 on Akt2 amounted to 160 nM; on p-Akt1 in LNCaP cells it was 3800 nM; on p-Akt3 in WM115 cells, 13 nM; on Akt3 it was 5 nM; on Akt1, 7000 nM; at p-Akt2 in WM115 cells, 900 nM.
For `CN([C@H]1CC[C@H](CC(=O)Nc2cnc(-c3ccc(C(C)(C)N)cc3)c(-c3ccccc3F)c2)CC1)S(C)(=O)=O` [Example A26, N-(6-(4-(2-aminopropan-2-yl)phenyl)-5-(2-fluorophenyl)pyridin-3-yl)-2-(trans-4-(N-methylmethylsulfonamido)cyclo-hexyl)acetamide], the IC50 is 3300 nM at Akt2; greater than 30000 nM at p-Akt1 in LNCaP cells; 390 nM at p-Akt3 in WM115 cells; 740 nM on Akt3; greater than 30000 nM on Akt1; 7000 nM on p-Akt2 in WM115 cells.
For `CCC(=O)N(C)[C@H]1CC[C@H](CC(=O)Nc2cc(-c3ccsc3)c(-c3ccc(C(C)(C)N)cc3)nn2)CC1` [Example 88, N-(trans-4-(2-((6-(4-(2-aminopropan-2-yl)phenyl)-5-(thiophen-3-yl)pyridazin-3-yl)amino)-2-oxoethyl)cyclohexyl)-N-methylpropionamide], the IC50 on Akt2 was 8600 nM; at p-Akt1 in LNCaP cells, greater than 30000 nM; on p-Akt3 in WM115 cells it was 240 nM; on Akt3, 64 nM; on Akt1 it was greater than 30000 nM; at p-Akt2 in WM115 cells it was 16000 nM.
Consider `CCN(C(C)=O)[C@H]1CC[C@H](CC(=O)Nc2cc(-c3ccccc3)c(-c3ccc([C@]4(N)C[C@](C)(O)C4)cc3)nn2)CC1` [Example 106, N-(6-(4-(trans-1-amino-3-hydroxy-3-methylcyclobutyl)phenyl)-5-phenylpyridazin-3-yl)-2-(trans-4-(N-ethylacetamido)cyclohexyl)acetamide], for which the IC50 on Akt2 is 210 nM; on p-Akt1 in LNCaP cells, 4000 nM; at p-Akt3 in WM115 cells it was 25 nM; at Akt3, 8 nM; on Akt1, greater than 13000 nM; at p-Akt2 in WM115 cells it was 1500 nM.
Turning to `CC(C)C(=O)N(C)[C@H]1CC[C@H](CC(=O)Nc2cnc(-c3ccc(C(C)(C)N)cc3)c(-c3ccccc3)c2)CC1` [Example 4, N-(trans-4-(2-((6-(4-(2-aminopropan-2-yl)phenyl)-5-phenylpyridin-3-yl)amino)-2-oxoethyl)cyclohexyl)-N-methylisobutyramide], the 50% inhibitory concentration (IC50) was 7300 nM on Akt2; greater than 30000 nM on p-Akt1 in LNCaP cells; 190 nM at p-Akt3 in WM115 cells; 73 nM on Akt3; greater than 30000 nM at Akt1; 7400 nM on p-Akt2 in WM115 cells.
Regarding `CN(C)C(=O)[C@H]1CC[C@H](CC(=O)Nc2cnc(-c3ccc(C(C)(C)N)cc3)c(-c3ccccc3)c2)CC1` [Example 55, trans-4-(2-((6-(4-(2-aminopropan-2-yl)phenyl)-5-phenylpyridin-3-yl)amino)-2-oxoethyl)-N,N-dimethylcyclohexanecarboxamide], the IC50 at Akt2 is 3300 nM; at p-Akt1 in LNCaP cells it was greater than 30000 nM; on p-Akt3 in WM115 cells, 160 nM; at Akt3, 1600 nM; on Akt1, greater than 30000 nM; on p-Akt2 in WM115 cells it was 3800 nM.
